Experimental data from US12263171B2, “7-, 8-, and 10-substituted amino triazolo quinazoline derivatives as adenosine receptor antagonists, pharmaceutical compositions and their use” (Merck Sharp & Dohme LLC, priority 2018, dated 2025).
pIC50: −log10 of the molar value.

Tests used:
[1] = target: T1, human A2b adenosine receptor (Homo sapiens (Human), UniProt P29275); assay: A2B antagonism in cAMP cell-based assay (LANCE cAMP, HEK293 cells, 600 nM adenosine); settings: for pIC50: values marked *: cAMP cell-based assay
T1 sequence (P29275 whole entry): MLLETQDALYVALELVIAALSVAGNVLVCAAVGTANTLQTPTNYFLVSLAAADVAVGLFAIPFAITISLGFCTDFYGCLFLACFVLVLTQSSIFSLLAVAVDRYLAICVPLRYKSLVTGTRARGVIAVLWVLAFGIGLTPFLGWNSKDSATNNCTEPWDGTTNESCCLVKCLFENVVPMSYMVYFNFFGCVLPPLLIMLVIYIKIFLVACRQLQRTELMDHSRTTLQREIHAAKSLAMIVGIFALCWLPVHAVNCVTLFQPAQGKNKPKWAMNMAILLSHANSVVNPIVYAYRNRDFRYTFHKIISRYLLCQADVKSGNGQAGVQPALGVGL

[2] = target: T2, human A2a adenosine receptor (Homo sapiens (Human), UniProt P29274); assay: A2A antagonism in cAMP cell-based assay (LANCE cAMP, HEK293 cells, 300 nM adenosine); settings: values marked *: cAMP cell-based assay
T2 sequence (P29274 whole entry): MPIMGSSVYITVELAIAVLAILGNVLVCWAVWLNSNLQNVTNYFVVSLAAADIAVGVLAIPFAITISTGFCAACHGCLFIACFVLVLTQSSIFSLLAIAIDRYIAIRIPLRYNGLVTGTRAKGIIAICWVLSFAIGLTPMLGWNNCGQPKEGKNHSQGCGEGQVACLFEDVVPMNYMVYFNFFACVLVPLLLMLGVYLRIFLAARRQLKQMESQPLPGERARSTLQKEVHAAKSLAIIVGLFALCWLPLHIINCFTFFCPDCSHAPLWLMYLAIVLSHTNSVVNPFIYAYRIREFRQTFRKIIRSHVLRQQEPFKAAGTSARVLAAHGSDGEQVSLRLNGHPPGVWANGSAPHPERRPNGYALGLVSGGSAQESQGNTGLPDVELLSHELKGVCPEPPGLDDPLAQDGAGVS
Description: Measurement of A2A and A2B Antagonism in cAMP Cell-Based Assay
All subsequent liquid additions were performed using a multichannel pipettor. […] After this time 5 μL of either 300 nM or 600 nM adenosine (Sigma Cat. No. A9251) for A2A and A2B respectively was added and incubated for 30 minutes at 37° C. and 5% CO2 in a humidified environment. At this time detection mix was prepared by combining the LANCE Eu-W8044 labeled streptavidin and. Biotin-cAMP in detection buffer according to the manufacturers protocol. […] Curve fitting of the percent effect data versus the log of compound concentration used a 4-parameter concentration response curve fitting algorithm to calculate IC50 values.

[3] = target: T1, human A2b adenosine receptor; assay: A2b radioligand filtration binding assay (tritiated proprietary A2b antagonist, HEK293 membranes); settings: @ 10000 nM, unstarred
Method in brief: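 Displacement of a tritiated proprietary A2b antagonist from membranes of HEK293 cells recombinantly expressing human A2b receptor, measured by filtration and scintillation counting. Percent effect was normalized to total and non-specific binding and fitted with a 4-parameter logistic to give IC50.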

[4] = target: T2, human A2a adenosine receptor; assay: A2a receptor affinity radioligand binding assay ([3H] SCH58261, membranes from HEK293 or CHO cells); settings: unstarred values: radioligand binding
Method in brief: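 Displacement of tritiated SCH58261 (working dilution 4 nM) from recombinant human A2a receptor membranes (HEK293 or CHO), 60 min at room temperature in Tris pH 7.4/MgCl2 buffer after 15–30 min compound preincubation. Scintillation counting after filtration; normalized percent effect fitted 4-parameter logistic for IC50.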

pIC50 [1] | pIC50 [2] | A2B binding % inh. @ 10000 nM [3] [% inh. @ 10000 nM] | pIC50 [4] | *A2B cAMP % inh. @ 10000 nM ([1]; @ 10000 nM, marked *) [% inh. @ 10000 nM*] | Structure (SMILES)
5.66 | 6.99 |  |  |  | COc1cccc2c1nc(N)n1nc(C3CCC(C)N(c4cnn(C(C)(C)CO)c4)C3)nc21 (single isomer, unassigned) [Example 146C]
< 5.00 | 6.20 |  |  |  | COc1ccc2c(c1)nc(N)n1nc([C@@H]3C[C@@H](C(F)(F)F)CN(c4cnn(CC(C)(C)O)c4)C3)nc21 (single isomer, unassigned) [Example 218B, 1-(4-((3R,5R or 3S,5S)-3-(5-amino-8-methoxy-[1,2,4]triazolo[1,5-c]quinazolin-2-yl)-5-(trifluoromethyl)piperidin-1-yl)-1H-pyrazol-1-yl)-2-methylpropan-2-ol]
 | 7.39 | 18 |  |  | COc1cccc2c1nc(N)n1nc([C@@H]3CCCN(c4cc(C(F)(F)F)ccn4)C3)nc21 [Example 116, (R)-7-melhoxy-2-(1-(4-(trifluoromethyl)pyridin-2-yl)piperidin-3-yl)-[1,2,4]triazolo[1,5-c]quinazolin-5-amine]
6.98 | 7.97 |  |  |  | COc1cccc2c1nc(N)n1nc([C@@H]3CCCN(c4ccc(C(F)(F)F)cn4)C3)nc21 [Example 118, (R)-7-methoxy-2-(1-(5-(trifluoromethyl)pyridin-2-yl)piperidin-3-yl)-[1,2,4]triazolo[1,5-c]quinazolin-5-amine]
6.34 | 7.52 |  |  |  | COc1cccc2c1nc(N)n1nc([C@H]3CC[C@@H](C)N(c4cn(CC(C)(C)O)nc4C)C3)nc21 [Example 145D, 1-(4-((2R,5S)-5-(5-amino-7-methoxy-[1,2,4]triazolo[1,5-c]quinazolin-2-yl)-2-methylpiperidin-1-yl)-3-methyl-1H-pyrazol-1-yl)-2-methylpropan-2-ol]
6.53 |  |  | 7.63 |  | CC[C@H]1CC[C@@H](c2nc3c4cccc(OC)c4nc(N)n3n2)CN1c1cnn(CC(C)(C)O)c1 [Example 216C, 1-(4-((2S,5R)-5-(5-amino-7-methoxy-[1,2,4]triazolo[1,5-c]quinazolin-2-yl)-2-ethylpiperidin-1-yl)-1H-pyrazol-1-yl)-2-methylpropan-2-ol]
5.70 |  |  | 9.30 |  | COc1ccc2c(c1)nc(N)n1nc([C@H]3C[C@@H](C)CN(c4cn([C@@H](C)[C@H](C)O)nc4C)C3)nc21 [Example 219A, (2S,3S)-3-(4-((3S,5R)-3-(5-amino-8-methoxy-[1,2,4]triazolo[1,5-c]quinazolin-2-yl)-5-methylpiperidin-1-yl)-3-methyl-1H-pyrazol-1-yl)butan-2-ol]
6.00 |  |  | 9.70 |  | COc1ccc2c(c1)nc(N)n1nc([C@@H]3C[C@H](C)CN(c4cn([C@H](C)[C@@H](C)O)nc4C)C3)nc21 [Example 219B, (2R,3R)-3-(4-((3R,5S)-3-(5-amino-8-methoxy-[1,2,4]triazolo[1,5-c]quinazolin-2-yl)-5-methylpiperidin-1-yl)-3-methyl-1H-pyrazol-1-yl)butan-2-ol]
5.25 | 7.41 |  |  |  | COc1ccc2c(c1)nc(N)n1nc([C@H]3C[C@@H](C)CN(c4cn([C@H](C)[C@@H](C)O)nc4C)C3)nc21 [Example 219C, (2R,3R)-3-(4-((3S,5R)-3-(5-amino-8-methoxy-[1,2,4]triazolo[1,5-c]quinazolin-2-yl)-5-methylpiperidin-1-yl)-3-methyl-1H-pyrazol-1-yl)butan-2-ol]
 | 7.35 |  |  | 33 | COc1ccc2c(c1)nc(N)n1nc([C@@H]3C[C@H](C)CN(c4cn([C@@H](C)[C@H](C)O)nc4C)C3)nc21 [Example 219D, (2S,3S)-3-(4-((3R,5S)-3-(5-amino-8-methoxy-[1,2,4]triazolo[1,5-c]quinazolin-2-yl)-5-methylpiperidin-1-yl)-3-methyl-1H-pyrazol-1-yl)butan-2-ol]
7.18 |  |  | 8.99 |  | COc1ccc2c(c1)nc(N)n1nc([C@@H]3CCCN(c4cnn([C@@H](C)[C@H](C)O)c4)C3)nc21 [Example 220A, (2S,3S)-3-(4-((R)-3-(5-amino-8-methoxy-[1,2,4]triazolo[1,5-c]quinazolin-2-yl)piperidin-1-yl)-1H-pyrazol-1-yl)butan-2-ol]
7.28 |  |  | 8.86 |  | COc1ccc2c(c1)nc(N)n1nc([C@@H]3CCCN(c4cnn([C@H](C)[C@@H](C)O)c4)C3)nc21 [Example 220B, (2R,3R)-3-(4-((R)-3-(5-amino-8-methoxy-[1,2,4]triazolo[1,5-c]quinazolin-2-yl)piperidin-1-yl)-1H-pyrazol-1-yl)butan-2-ol]
7.21 |  |  | 8.72 |  | COc1ccc2c(c1)nc(N)n1nc([C@@H]3CCCN(c4cnn([C@@H](C)[C@@H](C)O)c4)C3)nc21 [Example 221A, (2R,3S)-3-(4-((R)-3-(5-amino-8-methoxy-[1,2,4]triazolo[1,5-c]quinazolin-2-yl)piperidin-1-yl)-1H-pyrazol-1-yl)butan-2-ol]
7.07 |  |  | 8.82 |  | COc1ccc2c(c1)nc(N)n1nc([C@@H]3CCCN(c4cnn([C@H](C)[C@H](C)O)c4)C3)nc21 [Example 221B, (2S,3R)-3-(4-((R)-3-(5-amino-8-methoxy-[1,2,4]triazolo[1,5-c]quinazolin-2-yl)piperidin-1-yl)-1H-pyrazol-1-yl)butan-2-ol]
5.76 | 7.20 |  |  |  | COc1ccc2c(c1)nc(N)n1nc([C@H]3C[C@H](C)CN(c4cnn(C(C)(C)CO)c4)C3)nc21 [Example 222B, 2-(4-((3S,5S)-3-(5-amino-8-methoxy-[1,2,4]triazolo[1,5-c]quinazolin-2-yl)-5-methylpiperidin-1-yl)-1H-pyrazol-1-yl)-2-methylpropan-1-ol]
7.87 |  |  | 9.40 |  | COc1ccc2c(c1)nc(N)n1nc([C@H]3C[C@@H](C)CN(c4cnn(C(C)(C)CO)c4)C3)nc21 [Example 222C, 2-(4-((3S,5R)-3-(5-amino-8-methoxy-[1,2,4]triazolo[1,5-c]quinazolin-2-yl)-5-methylpiperidin-1-yl)-1H-pyrazol-1-yl)-2-methylpropan-1-ol]
6.18 | 7.48 |  |  |  | COc1ccc2c(c1)nc(N)n1nc([C@@H]3C[C@@H](C)CN(c4cnn(C(C)(C)CO)c4)C3)nc21 [Example 222D, 2-(4-((3R,5R)-3-(5-amino-8-methoxy-[1,2,4]triazolo[1,5-c]quinazolin-2-yl)-5-methylpiperidin-1-yl)-1H-pyrazol-1-yl)-2-methylpropan-1-ol]
7.68 |  |  | 9.00 |  | COc1cc(F)c2c(c1)nc(N)n1nc([C@@H]3CC[C@H](C)N(c4cnn(CC(C)(C)O)c4)C3)nc21 [Example 223, 1-(4-((2S,5R)-5-(5-amino-10-fluoro-8-methoxy-[1,2,4]triazolo[1,5-c]quinazolin-2-yl)-2-methylpiperidin-1-yl)-1H-pyrazol-1-yl)-2-methylpropan-2-ol]
8.02 |  |  | 9.52 |  | COc1ccc(F)c2c1nc(N)n1nc([C@@H]3CC[C@H](C)N(c4cnn(CC(C)(C)O)c4)C3)nc21 [Example 224, 1-(4-((2S,5R)-5-(5-amino-10-fluoro-7-methoxy-[1,2,4]triazolo[1,5-c]quinazolin-2-yl)-2-methylpiperidin-1-yl)-1H-pyrazol-1-yl)-2-methylpropan-2-ol]
7.49 |  |  | 8.92 |  | COc1ccc2c(c1)nc(N)n1nc([C@@H]3CCCN(c4cnn(C(C)(C)[C@H](C)O)c4)C3)nc21 [Example 225A]
7.11 |  |  | 8.49 |  | COc1ccc2c(c1)nc(N)n1nc([C@@H]3CCCN(c4cnn(C(C)(C)[C@@H](C)O)c4)C3)nc21 [Example 225B]
